Experimental data: paper PMC9219689, “The Antioxidant Cyclic 3-Hydroxymelatonin Promotes the Growth and Flowering of Arabidopsis thaliana” (Antioxidants, 2022)

T1: AtM3H (Arabidopsis thaliana melatonin 3-hydroxylase) (Arabidopsis thaliana, UniProt Q39224)
T1 construct: gene SRG1; full length, 358 residues; N-terminal hexahistidine tag (pET300), removal not mentioned; E. coli BL21(DE3), Ni-NTA purified
T1 sequence (Q39224 1-358): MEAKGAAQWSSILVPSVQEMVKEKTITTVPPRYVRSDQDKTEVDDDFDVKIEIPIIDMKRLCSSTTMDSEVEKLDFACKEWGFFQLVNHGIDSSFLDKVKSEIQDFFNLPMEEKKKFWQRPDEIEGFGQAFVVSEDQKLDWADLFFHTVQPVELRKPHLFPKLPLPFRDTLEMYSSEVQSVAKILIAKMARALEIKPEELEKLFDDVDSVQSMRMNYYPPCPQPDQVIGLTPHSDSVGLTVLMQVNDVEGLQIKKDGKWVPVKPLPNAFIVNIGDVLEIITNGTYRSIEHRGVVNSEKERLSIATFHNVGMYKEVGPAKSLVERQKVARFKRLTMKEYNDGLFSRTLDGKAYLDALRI


Legend:
[1] = target: T1, AtM3H (Arabidopsis thaliana melatonin 3-hydroxylase); test: HPLC with fluorescence detection of 3-OHM; inhibition of M3H activity; format: biochemical
[2] = substrate: COc1ccc2[nH]cc(CCNC(C)=O)c2c1; test: purified protein; settings: co-substrate α-ketoglutarate (160 µM in standard assay), FeSO4 100 µM, ascorbate 1 mM, catalase, optimum conditions (pH 7.3, 30 °C; Methods list Tris/HCl pH 8.0)

| inhibition at 500 µM [1] [%] | Molecule | Km [2] [µM] |
| --- | --- | --- |
| 50 | CCC(=O)C1C(=O)CC(C(=O)O)CC1=O (centres unmarked) [Prohexadione-Ca] |  |
|  | AtM3H (Arabidopsis thaliana melatonin 3-hydroxylase) (Arabidopsis thaliana) (protein) MEAKGAAQWSSILVPSVQEMVKEKTITTVPPRYVRSDQDKTEVDDDFDVKIEIPIIDMKRLCSSTTMDSEVEKLDFACKEWGFFQLVNHGIDSSFLDKVKSEIQDFFNLPMEEKKKFWQRPDEIEGFGQAFVVSEDQKLDWADLFFHTVQPVELRKPHLFPKLPLPFRDTLEMYSSEVQSVAKILIAKMARALEIKPEELEKLFDDVDSVQSMRMNYYPPCPQPDQVIGLTPHSDSVGLTVLMQVNDVEGLQIKKDGKWVPVKPLPNAFIVNIGDVLEIITNGTYRSIEHRGVVNSEKERLSIATFHNVGMYKEVGPAKSLVERQKVARFKRLTMKEYNDGLFSRTLDGKAYLDALRI | 100 |
